{
  "source": "patent US11717508B2",
  "about": "“Compounds, compositions, and methods for inhibiting bacterial growth” (priority 2016, dated 2023)",
  "key": {"CDC1551(ΔdosR) mutant": {"tested_on": "CDC1551(ΔdosR) mutant", "type": "cell-based", "conditions": "for log2 Fold change: DosR mutant, HC101A vs DMSO; for Counts per million (CPM): DosR mutant treated with HC101A, replicates 1, 2"}, "DosRST regulon": {"tested_on": "DosRST regulon", "type": "cell-based", "conditions": "40 μM, 6 days"}, "DosT": {"molecular_target": "DosT (Mycobacterium tuberculosis, UniProt P9WGK1, G115L)", "type": "biochemical"}},
  "note": "Several values for one entry are separate records, joined by “and”; a condition that tells them apart may be missing. Identical values can stand only once. Like-named read-outs stand apart in the source and are kept apart here.",
  "data": [
    {"molecule": "C[C@@H]1CC[C@H]2[C@@H](C)C(=O)O[C@@H]3O[C@]4(C)CC[C@@H]1[C@]32OO4", "note": "[HC101A, artemisinin, reference compound]", "values": [
      {"measurement": "log2 Fold change", "setting": "CDC1551(ΔdosR) mutant; gene MT1775", "value": "−1.012"},
      {"measurement": "log2 Fold change", "setting": "CDC1551(ΔdosR) mutant; gene MT1836 Rv1787 PPE", "value": 1.847},
      {"measurement": "Counts per million (CPM)", "setting": "CDC1551(ΔdosR) mutant; gene MT1854 Rv1804c", "value": "12.83 CPM and 20.46 CPM"},
      {"measurement": "log2 Fold change", "setting": "CDC1551(ΔdosR) mutant; gene MT1854 Rv1804c", "value": "−1.101"},
      {"measurement": "log2 Fold change", "setting": "CDC1551(ΔdosR) mutant; gene MT1893 Rv1845c", "value": 1.059},
      {"measurement": "Counts per million (CPM)", "setting": "CDC1551(ΔdosR) mutant; gene MT1922 Rv1873", "value": "11.35 CPM and 17.72 CPM"},
      {"measurement": "log2 Fold change", "setting": "CDC1551(ΔdosR) mutant; gene MT1922 Rv1873", "value": "−1.314"},
      {"measurement": "Counts per million (CPM)", "setting": "CDC1551(ΔdosR) mutant; gene MT1969 Rv1918c PPE", "value": "90.23 CPM and 98.57 CPM"},
      {"measurement": "log2 Fold change", "setting": "CDC1551(ΔdosR) mutant; gene MT1969 Rv1918c PPE", "value": "−1.009"},
      {"measurement": "Counts per million (CPM)", "setting": "CDC1551(ΔdosR) mutant; gene MT2040 Rv1986", "value": "79.07 CPM and 31.42 CPM"},
      {"measurement": "log2 Fold change", "setting": "CDC1551(ΔdosR) mutant; gene MT2040 Rv1986", "value": "−2.384"},
      {"measurement": "log2 Fold change", "setting": "CDC1551(ΔdosR) mutant; gene MT2126 Rv2066 cobl", "value": 1.049},
      {"measurement": "Counts per million (CPM)", "setting": "CDC1551(ΔdosR) mutant; gene MT2166 Rv2107 PE", "value": "25.86 CPM and 35.24 CPM"},
      {"measurement": "log2 Fold change", "setting": "CDC1551(ΔdosR) mutant; gene MT2166 Rv2107 PE", "value": "−1.899"},
      {"measurement": "Counts per million (CPM)", "setting": "CDC1551(ΔdosR) mutant; gene MT2167 Rv2108 PPE", "value": "31.6 CPM and 38.76 CPM"},
      {"measurement": "log2 Fold change", "setting": "CDC1551(ΔdosR) mutant; gene MT2167 Rv2108 PPE", "value": "−1.672"},
      {"measurement": "Counts per million (CPM)", "setting": "CDC1551(ΔdosR) mutant; gene MT2168", "value": "9.545 CPM and 9.201 CPM"},
      {"measurement": "log2 Fold change", "setting": "CDC1551(ΔdosR) mutant; gene MT2168", "value": "−1.358"},
      {"measurement": "log2 Fold change", "setting": "CDC1551(ΔdosR) mutant; gene MT2264 Rv2208 cobS", "value": 1.264},
      {"measurement": "Counts per million (CPM)", "setting": "CDC1551(ΔdosR) mutant; gene MT2278 Rv2220 glnA1", "value": "635.9 CPM and 701.1 CPM"},
      {"measurement": "log2 Fold change", "setting": "CDC1551(ΔdosR) mutant; gene MT2278 Rv2220 glnA1", "value": "−1.188"},
      {"measurement": "Counts per million (CPM)", "setting": "CDC1551(ΔdosR) mutant; gene MT2284 Rv2225 panB", "value": "197.5 CPM and 213.5 CPM"},
      {"measurement": "log2 Fold change", "setting": "CDC1551(ΔdosR) mutant; gene MT2284 Rv2225 panB", "value": "−1.005"},
      {"measurement": "Counts per million (CPM)", "setting": "CDC1551(ΔdosR) mutant; gene MT2304 Rv2244 acpM", "value": "831.8 CPM and 1,835.61 CPM"},
      {"measurement": "log2 Fold change", "setting": "CDC1551(ΔdosR) mutant; gene MT2304 Rv2244 acpM", "value": "−1.454"},
      {"measurement": "Counts per million (CPM)", "setting": "CDC1551(ΔdosR) mutant; gene MT2305 Rv2245 kasA", "value": "1,175.19 CPM and 2,060.94 CPM"},
      {"measurement": "log2 Fold change", "setting": "CDC1551(ΔdosR) mutant; gene MT2305 Rv2245 kasA", "value": "−1.196"},
      {"measurement": "Counts per million (CPM)", "setting": "CDC1551(ΔdosR) mutant; gene MT2306", "value": "704.1 CPM and 1,234.02 CPM"},
      {"measurement": "log2 Fold change", "setting": "CDC1551(ΔdosR) mutant; gene MT2306", "value": "−1.017"},
      {"measurement": "Counts per million (CPM)", "setting": "CDC1551(ΔdosR) mutant; gene MT2391 Rv2329c narK1", "value": "72.04 CPM and 74 CPM"},
      {"measurement": "log2 Fold change", "setting": "CDC1551(ΔdosR) mutant; gene MT2391 Rv2329c narK1", "value": "−1.058"},
      {"measurement": "Counts per million (CPM)", "setting": "CDC1551(ΔdosR) mutant; gene MT2417", "value": "8.836 CPM and 16.05 CPM"},
      {"measurement": "log2 Fold change", "setting": "CDC1551(ΔdosR) mutant; gene MT2417", "value": "−1.114"},
      {"measurement": "Counts per million (CPM)", "setting": "CDC1551(ΔdosR) mutant; gene MT2503 Rv2428 ahpC", "value": "372.7 CPM and 897.9 CPM"},
      {"measurement": "log2 Fold change", "setting": "CDC1551(ΔdosR) mutant; gene MT2503 Rv2428 ahpC", "value": "−1.173"},
      {"measurement": "Counts per million (CPM)", "setting": "CDC1551(ΔdosR) mutant; gene MT2504 Rv2429 ahpD", "value": "163.9 CPM and 315.8 CPM"},
      {"measurement": "Counts per million (CPM)", "setting": "CDC1551(ΔdosR) mutant; gene MT2506", "value": "236.2 CPM and 203 CPM"},
      {"measurement": "log2 Fold change", "setting": "CDC1551(ΔdosR) mutant; gene MT2506", "value": "−1.06"},
      {"measurement": "Counts per million (CPM)", "setting": "CDC1551(ΔdosR) mutant; gene MT2526 Rv2450c", "value": "892.4 CPM and 239.7 CPM"},
      {"measurement": "log2 Fold change", "setting": "CDC1551(ΔdosR) mutant; gene MT2526 Rv2450c", "value": "−1.032"},
      {"measurement": "log2 Fold change", "setting": "CDC1551(ΔdosR) mutant; gene MT2615 Rv2540c aroF", "value": 1.402},
      {"measurement": "log2 Fold change", "setting": "CDC1551(ΔdosR) mutant; gene MT2631", "value": 1.063},
      {"measurement": "Counts per million (CPM)", "setting": "CDC1551(ΔdosR) mutant; gene MT2698 Rv2623", "value": "41.08 CPM and 44.83 CPM"},
      {"measurement": "log2 Fold change", "setting": "CDC1551(ΔdosR) mutant; gene MT2698 Rv2623", "value": "−1.072"},
      {"measurement": "Counts per million (CPM)", "setting": "CDC1551(ΔdosR) mutant; gene MT2778 Rv2705c", "value": "45.21 CPM and 56.67 CPM"},
      {"measurement": "log2 Fold change", "setting": "CDC1551(ΔdosR) mutant; gene MT2778 Rv2705c", "value": "−1.01"},
      {"measurement": "Counts per million (CPM)", "setting": "CDC1551(ΔdosR) mutant; gene MT2849 Rv2779c", "value": "26.89 CPM and 12.92 CPM"},
      {"measurement": "log2 Fold change", "setting": "CDC1551(ΔdosR) mutant; gene MT2849 Rv2779c", "value": "−1.668"},
      {"measurement": "Counts per million (CPM)", "setting": "CDC1551(ΔdosR) mutant; gene MT2850 Rv2780 ald", "value": "1,263.03 CPM and 369.1 CPM"},
      {"measurement": "log2 Fold change", "setting": "CDC1551(ΔdosR) mutant; gene MT2850 Rv2780 ald", "value": "−1.861"},
      {"measurement": "log2 Fold change", "setting": "CDC1551(ΔdosR) mutant; gene MT2863 Rv2794c", "value": 1.021},
      {"measurement": "Counts per million (CPM)", "setting": "CDC1551(ΔdosR) mutant; gene MT3065 Rv2987c leuD", "value": "140.2 CPM and 20.16 CPM"},
      {"measurement": "log2 Fold change", "setting": "CDC1551(ΔdosR) mutant; gene MT3065 Rv2987c leuD", "value": "−1.094"},
      {"measurement": "log2 Fold change", "setting": "CDC1551(ΔdosR) mutant; gene MT3110 Rv3026c", "value": 1.612},
      {"measurement": "Counts per million (CPM)", "setting": "CDC1551(ΔdosR) mutant; gene MT3118 Rv3033", "value": "22.06 CPM and 33.57 CPM"},
      {"measurement": "Counts per million (CPM)", "setting": "CDC1551(ΔdosR) mutant; gene MT3132", "value": "35.54 CPM and 21.04 CPM"},
      {"measurement": "log2 Fold change", "setting": "CDC1551(ΔdosR) mutant; gene MT3132", "value": "−1.912"},
      {"measurement": "log2 Fold change", "setting": "CDC1551(ΔdosR) mutant; gene MT3133 Rv3048c nrdG", "value": "−2.008"},
      {"measurement": "log2 Fold change", "setting": "CDC1551(ΔdosR) mutant; gene MT3134 Rv3049c", "value": "−2.181"},
      {"measurement": "log2 Fold change", "setting": "CDC1551(ΔdosR) mutant; gene MT3178 Rv3094c", "value": "−1.319"},
      {"measurement": "log2 Fold change", "setting": "CDC1551(ΔdosR) mutant; gene MT3293 Rv3199c", "value": 1.039},
      {"measurement": "log2 Fold change", "setting": "CDC1551(ΔdosR) mutant; gene MT3327 Rv3230c", "value": 1.145},
      {"measurement": "log2 Fold change", "setting": "CDC1551(ΔdosR) mutant; gene MT3441 Rv3338", "value": "−1.641"},
      {"measurement": "log2 Fold change", "setting": "CDC1551(ΔdosR) mutant; gene MT3481 Rv3371", "value": "−1.101"},
      {"measurement": "log2 Fold change", "setting": "CDC1551(ΔdosR) mutant; gene MT3498 Rv3391 acrA1", "value": "−1.036"},
      {"measurement": "log2 Fold change", "setting": "CDC1551(ΔdosR) mutant; gene MT3581 Rv3477 PE", "value": "−1.558"},
      {"measurement": "log2 Fold change", "setting": "CDC1551(ΔdosR) mutant; gene MT3591 Rv3487c lipF", "value": "−1.301"},
      {"measurement": "log2 Fold change", "setting": "CDC1551(ΔdosR) mutant; gene MT3947 Rv3839", "value": "−1.144"},
      {"measurement": "log2 Fold change", "setting": "CDC1551(ΔdosR) mutant; gene MT3963 Rv3848", "value": "−1.017"},
      {"measurement": "log2 Fold change", "setting": "CDC1551(ΔdosR) mutant; gene MT3969 Rv3854c", "value": "−2.018"},
      {"measurement": "log2 Fold change", "setting": "CDC1551(ΔdosR) mutant; gene MT3970 Rv3855", "value": "−1.5"},
      {"measurement": "log2 Fold change", "setting": "CDC1551(ΔdosR) mutant; gene MT3976 Rv3862c", "value": "−1.387"},
      {"measurement": "log2 Fold change", "setting": "CDC1551(ΔdosR) mutant; gene MT3978 Rv3864", "value": "−1.324"},
      {"measurement": "log2 Fold change", "setting": "CDC1551(ΔdosR) mutant; gene MT3988 Rv3874", "value": "−1.066"},
      {"measurement": "log2 Fold change", "setting": "CDC1551(ΔdosR) mutant; gene MT3989 Rv3875 esat6", "value": "−1.043"},
      {"measurement": "genes inhibited that are not modulated in the CDC1551(ΔdosR) mutant", "setting": "DosRST regulon", "value": 157, "unit": "genes"},
      {"measurement": "genes downregulated by compound that are also downregulated in the CDC1551(ΔdosR) mutant", "setting": "DosRST regulon; >2-fold, p<0.05", "value": 85, "unit": "genes"},
      {"measurement": "response of DosT (G115L) protein to artemisinin", "setting": "DosT", "value": "exhibits artemisinin resistance"}
    ]}
  ]
}
